Tested on: Carrageenan pleurisy
Test: Carrageenan Pleurisy Assay
Format: in vivo
Settings: IP route, rat
Protocol: Assessment of another activity is provided by the carrageenan pleurisy assay. This assay indicates antiinflammatory activity. Carrageenan pleurisy is induced as previously described by Carter, G. W., et al., in J. Pharm. Pharmacol 34:66-67, 1982. Carrageenan ([…]) is injected intrapleurally in a 0.25 ml volume of pyrogen-free saline. Four hours later, the rats are sacrificed and 2 ml of a phenol red solution (325 mg phenol red in 1 liter of 0.05 M phosphate buffered saline) are added to each pleural cavity. The contents of the cavities are mixed and transferred to glass test tubes. A 50 pl aliquot is removed from each tube and exudate cells are counted after red blood cells lysis (with Zapoglobin; Coulter Electronics, Hialeah FL) using a Coulter model ZBI counter. The remaining exudate-phenol red mixture is centrifuged at […] for 15 minutes. One hundred pl of the supernatent fluid is diluted with 3.9 ml of phosphate buffer (0.072 M of tribasic sodium phosphate Na3PO4·12H2O, in water) and the absorbance is measured at 650 nm.
Exudate volume is calculated as follows: [formula] where V1 = unknown volume of exudate, V2 = volume of dye added to cavity (2 ml), A1 = absorbance of exudate (assumed to be zero), A2 = absorbance of the phenol red solution, A3 = absorbance of exudate and phenol red solution.
Inhibition of exudate or formation is calculated by the following equations: • % inhibition (exudate) = [formula] • % inhibition (cell count) = [formula] ID50 values are calculated by Probit analysis.
The compound of Example 1 was adminstered one hour prior to carrageenan injection.

Row | SMILES | % Inhibition Exudate (1 mg/kg) [%] | % Inhibition WBC (1 mg/kg) [%] | % Inhibition Exudate (10 mg/kg) [%] | % Inhibition WBC (10 mg/kg) [%] | % Inhibition Exudate (3 mg/kg) [%] | % Inhibition WBC (3 mg/kg) [%] | % Inhibition Exudate (30 mg/kg) [%] | % Inhibition WBC (30 mg/kg) [%]
1 | OC[C@H]1O[C@@H](n2cnc3c(NC4CCSc5ccccc54)ncnc32)[C@H](O)[C@@H]1O (stereo partly shown) [Example 15] | 13.5 | -10.7 | 63.9 | -16.9 |  |  |  | 
2 | OC[C@H]1O[C@@H](n2cnc3c(NC4COc5c(Cl)cccc5C4)ncnc32)[C@H](O)[C@@H]1O (stereo partly shown) [Example 5] |  |  | 40.2 | 68.0 | 22.7 | 27.2 |  | 
3 | Cc1cc2c(cc1C)OCC(Nc1ncnc3c1ncn3[C@@H]1O[C@H](CO)[C@@H](O)[C@H]1O)C2 (stereo partly shown) [Example 9, N^6-[6,7-Dimethyl-3-chromanylamino]adenosine] |  |  |  |  | 12.5 | 13.0 | 31.9 | 30.6
4 | COc1ccc2c(c1)CC(Nc1ncnc3c1ncn3[C@@H]1O[C@H](CO)[C@@H](O)[C@H]1O)CO2 (stereo partly shown) [Example 6] | 50.9 | 49.8 |  |  | 42.2 | 37.5 |  | 
